The values that follow come from patent publication US20240398811A1, “PRC2 INHIBITORS FOR USE IN TREATING BLOOD DISORDERS” (ORIC Pharmaceuticals, Inc., priority 2021, published 2024).

Molecules are shown by their SMILES.

Sequence of purified human, His-tagged PRC2 complex (O75530 whole entry): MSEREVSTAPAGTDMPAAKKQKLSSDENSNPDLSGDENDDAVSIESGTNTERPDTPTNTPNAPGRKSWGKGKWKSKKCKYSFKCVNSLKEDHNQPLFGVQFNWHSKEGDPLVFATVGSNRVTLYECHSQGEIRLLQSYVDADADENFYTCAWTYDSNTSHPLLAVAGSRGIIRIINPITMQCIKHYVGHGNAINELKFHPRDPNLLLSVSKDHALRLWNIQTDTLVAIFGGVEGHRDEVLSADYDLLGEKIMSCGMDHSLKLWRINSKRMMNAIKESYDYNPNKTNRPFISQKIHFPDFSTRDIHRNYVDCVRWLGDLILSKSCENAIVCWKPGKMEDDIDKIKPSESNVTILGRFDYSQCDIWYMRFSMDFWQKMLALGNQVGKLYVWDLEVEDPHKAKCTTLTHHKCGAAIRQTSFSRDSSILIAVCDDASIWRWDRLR
Sequence of purified human, His-tagged PRC2 complex (Q15910 whole entry partner): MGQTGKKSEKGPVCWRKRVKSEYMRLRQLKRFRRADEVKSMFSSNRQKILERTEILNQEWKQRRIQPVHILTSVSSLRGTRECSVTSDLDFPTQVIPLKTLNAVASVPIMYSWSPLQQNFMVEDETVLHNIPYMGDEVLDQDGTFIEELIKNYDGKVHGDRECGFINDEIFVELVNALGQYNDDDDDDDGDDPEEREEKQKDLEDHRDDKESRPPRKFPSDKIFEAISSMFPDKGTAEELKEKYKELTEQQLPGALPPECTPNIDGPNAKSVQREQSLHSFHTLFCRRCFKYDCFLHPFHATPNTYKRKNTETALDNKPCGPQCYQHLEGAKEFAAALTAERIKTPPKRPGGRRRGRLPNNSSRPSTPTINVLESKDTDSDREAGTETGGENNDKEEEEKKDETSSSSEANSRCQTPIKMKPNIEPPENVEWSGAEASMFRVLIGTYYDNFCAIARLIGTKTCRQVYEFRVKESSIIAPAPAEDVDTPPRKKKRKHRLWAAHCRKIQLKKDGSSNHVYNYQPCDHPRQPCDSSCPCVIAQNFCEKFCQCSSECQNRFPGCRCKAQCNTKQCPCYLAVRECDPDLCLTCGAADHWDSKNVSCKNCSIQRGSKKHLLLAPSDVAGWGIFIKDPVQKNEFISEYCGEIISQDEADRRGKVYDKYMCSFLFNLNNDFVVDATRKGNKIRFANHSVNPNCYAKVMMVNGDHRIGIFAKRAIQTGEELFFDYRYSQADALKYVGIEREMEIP
Sequence of purified human, His-tagged PRC2 complex (Q15022 whole entry partner): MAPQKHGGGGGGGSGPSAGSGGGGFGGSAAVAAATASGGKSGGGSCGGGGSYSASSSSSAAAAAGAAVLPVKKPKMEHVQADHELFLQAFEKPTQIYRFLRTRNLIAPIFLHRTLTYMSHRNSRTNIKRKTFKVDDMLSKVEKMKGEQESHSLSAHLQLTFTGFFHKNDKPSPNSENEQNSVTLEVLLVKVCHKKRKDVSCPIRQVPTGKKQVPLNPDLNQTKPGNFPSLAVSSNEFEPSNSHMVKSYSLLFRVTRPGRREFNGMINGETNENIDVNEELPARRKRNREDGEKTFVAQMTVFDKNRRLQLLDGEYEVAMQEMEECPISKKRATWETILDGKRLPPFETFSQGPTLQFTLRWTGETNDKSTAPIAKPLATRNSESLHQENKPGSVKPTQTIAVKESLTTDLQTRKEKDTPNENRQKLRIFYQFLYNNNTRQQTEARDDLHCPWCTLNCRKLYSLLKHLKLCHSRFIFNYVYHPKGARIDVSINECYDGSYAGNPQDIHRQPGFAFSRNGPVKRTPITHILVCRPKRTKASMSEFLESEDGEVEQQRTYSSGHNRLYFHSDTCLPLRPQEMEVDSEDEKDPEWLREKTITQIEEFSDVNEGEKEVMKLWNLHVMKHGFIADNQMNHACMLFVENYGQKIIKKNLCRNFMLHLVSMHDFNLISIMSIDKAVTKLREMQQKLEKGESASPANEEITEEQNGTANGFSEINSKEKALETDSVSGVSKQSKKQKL
Sequence of purified human, His-tagged PRC2 complex (Q6ZN18 whole entry partner): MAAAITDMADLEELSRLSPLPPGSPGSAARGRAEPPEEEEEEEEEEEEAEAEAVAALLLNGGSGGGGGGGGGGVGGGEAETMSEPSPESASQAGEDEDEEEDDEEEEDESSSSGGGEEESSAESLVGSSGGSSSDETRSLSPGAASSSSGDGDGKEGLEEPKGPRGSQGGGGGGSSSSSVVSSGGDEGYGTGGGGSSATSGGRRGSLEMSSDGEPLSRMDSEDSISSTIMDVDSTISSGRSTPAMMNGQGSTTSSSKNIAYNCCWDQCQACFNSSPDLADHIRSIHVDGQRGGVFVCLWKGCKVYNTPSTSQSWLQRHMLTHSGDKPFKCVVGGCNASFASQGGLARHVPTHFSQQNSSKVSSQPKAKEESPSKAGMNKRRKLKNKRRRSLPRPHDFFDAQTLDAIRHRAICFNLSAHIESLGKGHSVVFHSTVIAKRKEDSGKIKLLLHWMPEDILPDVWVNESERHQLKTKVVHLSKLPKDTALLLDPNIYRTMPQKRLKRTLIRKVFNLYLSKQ
Sequence of purified human, His-tagged PRC2 complex (Q09028 whole entry partner): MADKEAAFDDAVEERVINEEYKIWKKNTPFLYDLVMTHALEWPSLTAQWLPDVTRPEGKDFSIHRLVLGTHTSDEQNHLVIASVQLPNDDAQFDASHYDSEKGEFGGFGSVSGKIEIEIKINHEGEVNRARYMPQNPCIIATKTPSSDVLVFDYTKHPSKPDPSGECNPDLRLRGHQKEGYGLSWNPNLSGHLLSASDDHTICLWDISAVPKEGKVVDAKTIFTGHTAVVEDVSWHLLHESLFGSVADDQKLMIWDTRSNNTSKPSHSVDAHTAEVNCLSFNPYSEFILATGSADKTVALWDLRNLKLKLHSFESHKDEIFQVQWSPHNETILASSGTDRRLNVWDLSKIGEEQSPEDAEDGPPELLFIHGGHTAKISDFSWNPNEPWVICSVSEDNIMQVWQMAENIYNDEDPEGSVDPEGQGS

The assay deals with purified human, His-tagged PRC2 complex (Homo sapiens (Human), UniProt O75530). Nature of the assay: Hot Spot HMT assay, inhibition of PRC2 enzymatic activity. Format: biochemical. Conditions: 10 nM PRC2 complex, 1 μM 3H-SAM, core histone H3, 10-point dose-response. Put shortly:
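Five-subunit PRC2 complex (EZH2, EED, SUZ12, AEBP2, RbAp48; 10 nM) preincubated 20 min at 30° C with compound (top 1.0 μM) and 0.05 mg/ml core histone H3 in Tris-HCl, 1% DMSO. Started with 1 μM [3H]SAM, 1 hr at 30° C; tritiated H3 measured by filter binding and scintillation.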
`N#Cc1cn2c(NCc3c(F)ccc4c3CCO4)ncc(-c3ccc(C(F)(F)F)nc3)c2n1` [Example 126, 5-(((5-fluoro-2,3-dihydrobenzofuran-4-yl)methyl)amino)-8-(6-(trifluoromethyl)pyridin-3-yl)imidazo[1,2-c]pyrimidine-2-carbonitrile]: the IC50 lay within 100 to 500 nM. `N#Cc1cn2c(NCc3c(F)ccc4c3CCO4)ncc(-c3ccnn3C3CC3)c2n1` [Example 193, 8-(1-cyclopropyl-1H-pyrazol-5-yl)-5-(((5-fluoro-2,3-dihydrobenzofuran-4-yl)methyl)amino)imidazo[1,2-c]pyrimidine-2-carbonitrile] displayed an IC50 of less than 100 nM. Consider `N#Cc1cn2c(NCc3c(F)ccc4c3CCO4)ncc(-c3ccc([C@H]4CCCN4)cc3)c2n1` [Example 220, (R)-5-(((5-fluoro-2,3-dihydrobenzofuran-4-yl)methyl)amino)-8-(4-(pyrrolidin-2-yl)phenyl)imidazo[1,2-c]pyrimidine-2-carbonitrile], for which the IC50 is 100 to 500 nM. The molecule `Cc1cn(-c2cnc(NCc3c(F)ccc4c3CCO4)n3cc(C(N)=O)nc23)cn1` [Example 17, 5-(((5-fluoro-2,3-dihydrobenzofuran-4-yl)methyl)amino)-8-(4-methyl-1H-imidazol-1-yl)imidazo[1,2-c]pyrimidine-2-carboxamide] returned an IC50 of 100 to 500 nM.

In turn, `N#Cc1cn2c(NCc3c(F)ccc4c3CCO4)ncc(C3CC3)c2n1` [Example 77, 8-cyclopropyl-5-(((5-fluoro-2,3-dihydrobenzofuran-4-yl)methyl)amino)imidazo[1,2-c]pyrimidine-2-carbonitrile] came in with an IC50 of 100 to 500 nM.

In turn, `COc1cc(Cl)c(-c2cnc(NCc3c(F)ccc4c3CCO4)n3cc(C#N)nc23)cn1` [Example 91, 8-(4-chloro-6-methoxypyridin-3-yl)-5-(((5-fluoro-2,3-dihydrobenzofuran-4-yl)methyl)amino)imidazo[1,2-c]pyrimidine-2-carbonitrile] gave an IC50 of 100 to 500 nM. Next, `Cc1nc(C2CC2)ncc1-c1cnc(NCc2c(F)ccc3c2CCO3)n2cc(C(=O)O)nc12` [Example 7, 8-(2-cyclopropyl-4-methylpyrimidin-5-yl)-5-(((5-fluoro-2,3-dihydrobenzofuran-4-yl)methyl)amino)imidazo[1,2-c]pyrimidine-2-carboxylic acid]: less than 100 nM; `CCn1cc(-c2cnc(NCc3c(F)ccc4c3CCO4)n3cc(C#N)nc23)cn1` [Example 119, 8-(1-ethyl-1H-pyrazol-4-yl)-5-(((5-fluoro-2,3-dihydrobenzofuran-4-yl)methyl)amino)imidazo[1,2-c]pyrimidine-2-carbonitrile]: 100 to 500 nM.

In turn, `N#Cc1cn2c(NCc3c(F)ccc4c3CCO4)ncc(-c3ccc(CO)nc3)c2n1` [Example 147, 5-(((5-fluoro-2,3-dihydrobenzofuran-4-yl)methyl)amino)-8-(6-(hydroxymethyl)pyridin-3-yl)imidazo[1,2-c]pyrimidine-2-carbonitrile] showed an IC50 of 100 to 500 nM. The molecule `CNCc1cc(-c2cnc(NCc3c(F)ccc4c3CCO4)n3cc(C#N)nc23)n(C)n1` [Example 211, 5-(((5-fluoro-2,3-dihydrobenzofuran-4-yl)methyl)amino)-8-(1-methyl-3-((methylamino)methyl)-1H-pyrazol-5-yl)imidazo[1,2-c]pyrimidine-2-carbonitrile] displayed an IC50 of less than 100 nM. Regarding `CC(C)n1cc(-c2cnc(NCc3c(F)ccc4c3CCO4)n3cc(C#N)nc23)cn1` [Example 99, 5-(((5-fluoro-2,3-dihydrobenzofuran-4-yl)methyl)amino)-8-(1-isopropyl-1H-pyrazol-4-yl)imidazo[1,2-c]pyrimidine-2-carbonitrile], the IC50 is less than 100 nM. `Cc1ccc(C#N)cc1-c1cnc(NCc2c(F)ccc3c2CCO3)n2cc(C#N)nc12` [Example 177, 8-(5-cyano-2-methylphenyl)-5-(((5-fluoro-2,3-dihydrobenzofuran-4-yl)methyl)amino)imidazo[1,2-c]pyrimidine-2-carbonitrile] gave a concentration for half-maximal inhibition (IC50) of 100 to 500 nM. Turning to `Cc1cc(-c2cnc(NCc3c(F)ccc4c3CCO4)n3cc(C#N)nc23)n(C)n1` [Example 86, 8-(1,3-dimethyl-1H-pyrazol-5-yl)-5-(((5-fluoro-2,3-dihydrobenzofuran-4-yl)methyl)amino)imidazo[1,2-c]pyrimidine-2-carbonitrile], the IC50 was less than 100 nM. The molecule `COc1ncc(-c2cnc(NCc3c(F)ccc4c3CCO4)n3cc(C#N)nc23)c(C)n1` [Example 88, 5-(((5-fluoro-2,3-dihydrobenzofuran-4-yl)methyl)amino)-8-(2-methoxy-4-methylpyrimidin-5-yl)imidazo[1,2-c]pyrimidine-2-carbonitrile] came in with an IC50 of less than 100 nM.

For `CN1CCc2cc(-c3cnc(NCc4c(F)ccc5c4CCO5)n4cc(C#N)nc34)ccc2C1=O` [Example 168, 5-(((5-fluoro-2,3-dihydrobenzofuran-4-yl)methyl)amino)-8-(2-methyl-1-oxo-1,2,3,4-tetrahydroisoquinolin-6-yl)imidazo[1,2-c]pyrimidine-2-carbonitrile], the IC50 was less than 100 nM. `COc1cc(C)c(-c2cnc(NCc3c(F)ccc4c3CCO4)n3cc(C(=O)O)nc23)cn1` [Example 6, 5-(((5-fluoro-2,3-dihydrobenzofuran-4-yl)methyl)amino)-8-(6-methoxy-4-methylpyridin-3-yl)imidazo[1,2-c]pyrimidine-2-carboxylic acid] registered an IC50 of 100 to 500 nM.

Take `COc1cc(-c2cnc(NCc3c(F)ccc4c3CCO4)n3cc(C#N)nc23)c(F)cn1` [Example 123, 5-(((5-fluoro-2,3-dihydrobenzofuran-4-yl)methyl)amino)-8-(5-fluoro-2-methoxypyridin-4-yl)imidazo[1,2-c]pyrimidine-2-carbonitrile]: the IC50 was less than 100 nM. On to `Cc1n[nH]cc1-c1cnc(NCc2c(F)ccc3c2CCO3)n2cc(C#N)nc12` [Example 79, 5-(((5-fluoro-2,3-dihydrobenzofuran-4-yl)methyl)amino)-8-(3-methyl-1H-pyrazol-4-yl)imidazo[1,2-c]pyrimidine-2-carbonitrile], for which the IC50 is less than 100 nM. On to `CC(O)Cn1cc(-c2cnc(NCc3c(F)ccc4c3CCO4)n3cc(C#N)nc23)cn1` (centres unmarked) [Example 179, 5-(((5-fluoro-2,3-dihydrobenzofuran-4-yl)methyl)amino)-8-(1-(2-hydroxypropyl)-1H-pyrazol-4-yl)imidazo[1,2-c]pyrimidine-2-carbonitrile], for which the IC50 was less than 100 nM. In turn, `COC(=O)c1cc(-c2cnc(NCc3c(F)ccc4c3CCO4)n3cc(C#N)nc23)n(C)n1` [Example 169, methyl 5-(2-cyano-5-(((5-fluoro-2,3-dihydrobenzofuran-4-yl)methyl)amino)imidazo[1,2-c]pyrimidin-8-yl)-1-methyl-1H-pyrazole-3-carboxylate] had an IC50 of less than 100 nM. On to `[2H]C1Oc2ccc(F)c(C([2H])([2H])Nc3ncc(-c4ccc(CN(C)C)cc4C)c4nc(C#N)cn34)c2C1[2H]` (centres unmarked) [Example 223, 8-(4-((dimethylamino)methyl)-2-methylphenyl)-5-(((5-fluoro-2,3-dihydrobenzofuran-4-yl-2,3-d2)methyl-d2)amino)imidazo[1,2-c]pyrimidine-2-carbonitrile], for which the IC50 is less than 100 nM. `Cc1nc(N2CCN(C)CC2)ccc1-c1cnc(NCc2c(F)ccc3c2CCO3)n2cc(C(N)=O)nc12` [Example 138, 5-(((5-fluoro-2,3-dihydrobenzofuran-4-yl)methyl)amino)-8-(2-methyl-6-(4-methylpiperazin-1-yl)pyridin-3-yl)imidazo[1,2-c]pyrimidine-2-carboxamide]: the IC50 is less than 100 nM. `CNCc1ccc(-c2cnc(NCc3c(F)ccc4c3CCO4)n3cc(C#N)nc23)cc1` [Example 185, 5-(((5-fluoro-2,3-dihydrobenzofuran-4-yl)methyl)amino)-8-(4-((methylamino)methyl)phenyl)imidazo[1,2-c]pyrimidine-2-carbonitrile] showed an IC50 of less than 100 nM.

Molecule `N#Cc1cn2c(NCc3c(F)ccc4c3CCO4)ncc(-c3ccc(CN4CCC(O)C4)cc3)c2n1` (centres unmarked) [Example 151, 5-(((5-fluoro-2,3-dihydrobenzofuran-4-yl)methyl)amino)-8-(4-((3-hydroxypyrrolidin-1-yl)methyl)phenyl)imidazo[1,2-c]pyrimidine-2-carbonitrile] had an IC50 of less than 100 nM. `N#Cc1cn2c(NCc3c(F)ccc4c3CCO4)ncc(-c3ccc(S(=O)(=O)C(F)(F)F)cc3)c2n1` [Example 82, 5-(((5-fluoro-2,3-dihydrobenzofuran-4-yl)methyl)amino)-8-(4-((trifluoromethyl)sulfonyl)phenyl)imidazo[1,2-c]pyrimidine-2-carbonitrile] had an IC50 of 100 to 500 nM. In turn, `Cc1cc(-c2cnc(NCc3c(F)ccc4occc34)n3cc(C(=O)O)nc23)n(C)n1` [Example 9, 8-(1,3-dimethyl-1H-pyrazol-5-yl)-5-(((5-fluorobenzofuran-4-yl)methyl)amino)imidazo[1,2-c]pyrimidine-2-carboxylic acid] displayed an IC50 of less than 100 nM. In the case of `CN(C)C(=O)c1ccc(-c2cnc(NCc3c(F)ccc4c3CCO4)n3cc(C#N)nc23)c(F)c1F` [Example 42, 4-(2-cyano-5-(((5-fluoro-2,3-dihydrobenzofuran-4-yl)methyl)amino)imidazo[1,2-c]pyrimidin-8-yl)-2,3-difluoro-N,N-dimethylbenzamide], the IC50 was less than 100 nM.

For the molecule `Cc1cc(-c2cnc(NCc3c(F)ccc4occc34)n3cc(C(N)=O)nc23)n(C)n1` [Example 18, 8-(1,3-dimethyl-1H-pyrazol-5-yl)-5-(((5-fluorobenzofuran-4-yl)methyl)amino)imidazo[1,2-c]pyrimidine-2-carboxamide], the IC50 is less than 100 nM.

In the case of `COCCOc1ncc(-c2cnc(NCc3c(F)ccc4c3CCO4)n3cc(C#N)nc23)cn1` [Example 191, 5-(((5-fluoro-2,3-dihydrobenzofuran-4-yl)methyl)amino)-8-(2-(2-methoxyethoxy)pyrimidin-5-yl)imidazo[1,2-c]pyrimidine-2-carbonitrile], the IC50 lay within 100 to 500 nM.

By IC50 is commonly meant the point on the concentration scale where inhibition reaches its midpoint. Lower therefore signals greater potency.
